Experimental data published in the NIST ThermoML archive (doi:10.1021/je0340755).

Assay: xn = mol fraction of the nth substance listed
Conditions: 101.3 kPa, Liquid; for viscosity: Capillary tube (Ostwald / Ubbelohde) method

OCCCCO [1,4-butanediol] + O
Conditions | mass density, 298.15 K [kg/m3] | mass density, 308.15 K [kg/m3] | mass density, 318.15 K [kg/m3] | speed of sound, 298.15 K [m/s] | speed of sound, 308.15 K [m/s] | speed of sound, 318.15 K [m/s] | viscosity, 298.15 K [mPa·s] | viscosity, 308.15 K [mPa·s] | viscosity, 318.15 K [mPa·s]
x2 = 0.055 | 1013.64 | 1007.37 | 1001.62 | 1609 | 1591 | 1574.6 | 68.26 | 42.31 | 27.43
x2 = 0.1534 | 1015.1 | 1008.7 | 1002.81 | 1623.6 | 1604.6 | 1586.7 | 59.73 | 37.48 | 24.34
x2 = 0.2472 | 1016.59 | 1010.06 | 1004.04 | 1637.5 | 1617.7 | 1598.8 | 51.48 | 32.83 | 21.39
x2 = 0.3542 | 1018.46 | 1011.78 | 1005.59 | 1658.6 | 1637.1 | 1615.4 | 42.26 | 27.6 | 18.04
x2 = 0.4531 | 1020.08 | 1013.29 | 1006.95 | 1678.2 | 1655.1 | 1632.8 | 33.95 | 22.83 | 15
x2 = 0.498 | 1020.71 | 1013.88 | 1007.49 | 1686 | 1662.5 | – | 30.26 | 20.69 | 13.63
x2 = 0.5578 | 1021.37 | 1014.52 | – | 1695.3 | 1671 | – | 25.51 | 17.9 | 11.84
x2 = 0.6513 | 1021.78 | 1014.99 | – | 1707.7 | 1684.1 | – | 18.65 | 13.72 | 9.148
x2 = 0.7496 | 1020.65 | 1014.15 | – | 1715.9 | 1693 | – | 12.57 | 9.702 | 6.533
x2 = 0.8475 | 1016.21 | 1010.43 | – | 1702.6 | 1685.5 | – | 7.83 | 6.132 | 4.179
x2 = 0.9081 | 1010.66 | 1005.69 | – | 1663.1 | 1655 | – | 5.31 | 4.059 | 2.8
x2 = 0.9152 | 1009.83 | 1004.98 | – | 1655.8 | 1648.7 | – | 5.014 | 3.816 | 2.639
x2 = 0.9253 | 1008.58 | 1003.91 | – | 1644.1 | 1639.7 | – | 4.588 | 3.469 | 2.408
x2 = 0.9355 | 1007.24 | 1002.76 | – | 1630.7 | 1628.5 | – | 4.148 | 3.115 | 2.173
x2 = 0.9543 | 1004.56 | 1000.47 | – | 1601.1 | 1604.2 | – | 3.3 | 2.45 | 1.732
x2 = 0.955 | 1004.46 | 1000.37 | – | 1599.8 | 1603 | – | 3.267 | 2.425 | 1.716
x2 = 0.9597 | 1003.74 | 999.76 | – | 1591.3 | 1595.9 | – | 3.045 | 2.255 | 1.604
x2 = 0.9699 | 1002.14 | 998.39 | – | 1571.1 | 1579.2 | – | 2.544 | 1.881 | 1.357
x2 = 0.9804 | 1000.42 | 996.91 | – | 1547.9 | 1560.2 | – | 2.001 | 1.487 | 1.098
x2 = 0.9901 | 998.77 | 995.5 | – | 1523.9 | 1540.2 | – | 1.468 | 1.112 | 0.853
x2 = 0.9924 | 998.37 | 995.16 | – | 1517.8 | 1535.5 | – | 1.337 | 1.022 | 0.794
x2 = 0.9955 | 997.83 | 994.7 | – | 1509.5 | 1528.5 | – | 1.158 | 0.899 | 0.714
